How the values were obtained:
[1] = liver concentrations after oral dosing in rats; format: in vivo, Male Sprague-Dawley derived rats; settings: rat; for concentration at 1 h / concentration at 12 h / concentration at 24 h: male, Sprague-Dawley, liver, 5 mg/kg oral; for EC50 multiple: ratio of post 24-hour liver concentration over EC50 value: EC50 from HCV replicon assays
Description: Compounds I, II and III were prepared as a solution in a DMSO: PEG-400 vehicle at a concentration of 5 mg/mL shortly before oral dosing. Male Sprague-Dawley derived rats, weighing 250-350 grams, were obtained from Charles River Laboratories, Inc. (Wilmington, Mass.). The animals were fasted overnight prior to dosing and throughout the study period, but were allowed water ad libitum. Animals were allowed chow ad libitum post 12 hr. Each study used a group of 3 rats. Each rat received a 5 mg/kg (1 mL/kg) oral dose of compound I, II or III administered by gavage. At selected time points after dosing, groups of three rats were euthanized with CO2 and exsanguinated by cardiac puncture. The entire liver tissue from each animal was removed and placed in a labeled plastic container. Groups of rats were sacrificed 1, 12 and 24 hours after drug administration. The liver samples were stored on ice (about 4° C.), and then assayed for the concentration of each compound using high performance liquid chromatographic procedures.

[2] = tested on: HCV 1b-N replicon cells; experiment: passage of HCV 1b-N replicon cells with compounds alone or in combination, absence of neomycin; format: cell-based; settings: individual compounds or agents at 10 to 20-fold above their respective EC50
Description: The effect of compound I on HCV replicon was evaluated alone or in combination with other anti-HCV agents. […] The EC50 values represent the 50% inhibitory concentrations of these compounds/agents in replicon cell assays.

[3] = tested on: HCV replicon; experiment: HCV replicon assays; format: cell-based
Description: The 50% inhibitory concentration of an HCV inhibitor (EC50) can also be evaluated using HCV replicon assays as described in Ikeda et al., J. VIROL., 76:2997-3006 (2002), and Blight et al., SCIENCE, 290:1972-1974 (2000), with the following modifications. Replicon cells are plated at 3×10^3 cells per well in 96-well plate in DMEM medium containing 5% fetal calf serum. At day 1, culture medium is removed and replaced with fresh medium containing eight serial 2-fold dilutions of the compound of interest. The final concentration of DMSO in medium is 0.5%. The untreated control culture is treated in an identical manner except no inhibitor is added to the medium. Plates are incubated in a CO2 incubator at 37° C. On Day 4, 100 μl lysis buffer (RTL) (Qiagen) is added to each well after removal of culture medium. RNA is purified according to manufacturer's recommendations (Qiagen RNAeasy) and eluted in 200 μl of water. The HCV RNA level is quantified from a portion (5 μl out of 200 μl) of the purified RNA by real-time RT-PCR method. The primers and probe are derived from specific sequence in the 5′UTR region. RT-PCR reaction is performed at 48° C. for 30 min, followed by 40 cycles set to 95° C., 15 s; 54° C., 30 s; and 72° C., 40 s. […]

SMILES	concentration at 1 h [1]	concentration at 12 h [1]	concentration at 24 h [1]	EC50 multiple: ratio of post 24-hour liver concentration over EC50 value ([1]; 24 hours after oral dosing)	HCV RNA levels during treatment [2]	elimination of HCV RNA from replicon cells [2]	higher potency in the inhibition of HCV replication as compared to 1-Benzyl-4-hydroxy-3-[7-(hydroxymethyl)-1,1-dioxido-4H-thieno[2,3-e][1,2,4]thiadiazin-3-yl]quinolin-2(1H)-one [3]	EC50 ([3]; Hepatitis C virus, read-out: 50% inhibitory concentration (EC50), HCV replicon assays)	liver concentration of compound I relative to those of compounds II and III ([1]; 24 hours after oral dosing)
CS(=O)(=O)NCc1csc2c1S(=O)(=O)N=C(c1c(O)c3ccccc3n(NCC3CC3)c1=O)N2 [compound II, N-[(3-{1-[(cyclopropylmethyl)amino]-4-hydroxy-2-oxo-1,2-dihydroquinolin-3-yl}-1,1-dioxido-4H-thieno[2,3-e][1,2,4]thiadiazin-7-yl)methyl]methanesulfonamide]	18900 ng/g	7920 ng/g	120 ng/g	significantly lower than that of compound I					
CS(=O)(=O)Nc1ccc2c(c1)S(=O)(=O)N=C(c1c(O)c3ccccc3n(NC3CCC3)c1=O)N2 [compound III, N-{3-[1-(cyclobutylamino)-4-hydroxy-2-oxo-1,2-dihydroquinolin-3-yl]-1,1-dioxido-4H-1,2,4-benzothiadiazin-7-yl}methanesulfonamide]	8790 ng/g	4140 ng/g	280 ng/g	significantly lower than that of compound I					
CS(=O)(=O)NCc1csc2c1S(=O)(=O)N=C(c1c(O)c3ccccc3n(NC3CCC3)c1=O)N2 [compound I, N-[(3-{1-[(cyclobutyl)amino]-4-hydroxy-2-oxo-1,2-dihydro-quinolin-3-yl}-1,1-dioxo-1,4-dihydro-1λ^6-thieno[2,3-e][1,2,4]thiadiazin-7-yl)methyl]methanesulfonamide]	18700 ng/g	19200 ng/g	2420 ng/g	more than 1.800 fold	significantly reduced	none of them eliminated the HCV RNA	about 100 fold	~2.5 nM	8-20 times
CCC[C@H](NC(=O)C1[C@H]2CCC[C@H]2CN1C(=O)[C@@H](NC(=O)[C@@H](NC(=O)c1cnccn1)C1CCCCC1)C(C)(C)C)C(=O)C(=O)NC1CC1 (stereo partly shown) [compound VX-950]					significantly reduced	none of them eliminated the HCV RNA			

Reference: patent US7951800B2, “Anti-infective agents” (Abbott Laboratories, Inc., priority 2006, dated 2011)
